Results published in US20190233884A1 (University of Southern California, priority 2016, published 2019).

System: patients with refractory metastatic colorectal cancer (mCRC)
Experiment: PFS, OS and disease control in the testing (validation) cohort of refractory mCRC patients receiving TAS-102 (n=129, Italy), by baseline characteristics, SNP genotype and toxicity
Type: in vivo, human
Details: for HR OS (95% CI) / HR PFS (95% CI): ATM rs609429 Any G vs C/C (Ref.)
Description: All patients underwent the treatment in salvage-line setting. […]
(§1) Genomic DNA was extracted from peripheral whole blood in patients of all cohorts using the QIAmp Kit (Qiagen, Valencia, Calif., USA) according to the manufacturer's protocol (www.qiagen.com). The candidate SNPs were genotyped using PCR-based direct DNA sequence analysis by ABI 3100A Capillary Genetic Analyzer and Sequencing Scanner v1.0 (Applied Biosystems). Amplification of extracted DNA was carried out using both forward and reverse primers for each gene polymorphism as shown in Table 1. […] The investigators analyzing SNPs were blinded to the clinical data of the study patients.
The primary endpoint in this study was progression-free survival (PFS), and the secondary endpoints were overall survival (OS) and disease control rate (DCR). PFS was calculated from the date of starting treatment to the first observation of disease progression or death from any cause. If a patient had no disease progression or death, PFS was censored at the date of last follow up. OS was calculated from the date of starting treatment until the date of death from any cause or the date of the last follow-up, at which point OS was censored. The disease control rate (DCR) was defined as the proportion of patients who achieved a stable disease (SD) or […] according to RECISTv1.1. Chi-square test was used to examine the difference in baseline patient characteristics among the three cohorts. Allelic distribution of all SNPs by ethnicity for deviation from Hardy-Weinberg equilibrium and the allelic frequencies of SNPs were tested using the Chi-square tests with one degree of freedom. The associations between candidate SNPs and disease control, and toxicities were examined using contingency tables and Fisher's exact test. The associations of SNPs with PFS and OS were analysed using Kaplan-Meier curves and the log-rank test. Because the true mode of inheritance of candidate SNPs was not established yet, a codominant or dominant genetic model if appropriate was considered.
All patients underwent the treatment in salvage-line setting. […] In all patients, adverse events were graded according to the Common Terminology Criteria for Adverse Events, version 4.0. […]
as §1, with “tested” for “genotyped”, “Biosystems).” for “Biosystems). Amplification of extracted DNA was carried out using both forward and reverse primers for each gene polymorphism as shown in Table 1.”, “data.” for “data of the study patients.”
The primary endpoint in this study was progression-free survival (PFS), and the secondary endpoints were overall survival (OS) and disease control rate (DCR).

[1] = testing cohort, hENT1 rs750370 A/A
[2] = testing cohort, hENT1 rs750370 A/G
[3] = testing cohort, hENT1 rs750370 A/G vs A/A
[4] = testing cohort, hENT1 rs750370 Any G
[5] = testing cohort, hENT1 rs750370 Any G vs A/A
[6] = testing cohort, hENT1 rs750370 G/G
[7] = testing cohort, hENT1 rs750370 G/G vs A/A
[8] = testing cohort, hENT1 rs760370, multivariable adjusted for age group, liver metastasis, ECOG, previous anti-EGFR
[9] = testing cohort, hENT1 rs760370 A/A
[10] = testing cohort, hENT1 rs760370 any G allele
[11] = testing cohort, hENT1 rs760370 any G vs A/A, univariate
[12] = testing cohort, hENT1 rs9394992 Any T
[13] = testing cohort, hENT1 rs9394992 Any T vs C/C
[14] = testing cohort, hENT1 rs9394992 C/C
[15] = testing cohort, hENT1 rs9394992 C/T
[16] = testing cohort, hENT1 rs9394992 C/T vs C/C
[17] = testing cohort, hENT1 rs9394992 T/T
[18] = testing cohort, hENT1 rs9394992 T/T vs C/C
[19] = testing cohort, hENT1370_OCT019 Excellent
[20] = testing cohort, hENT1370_OCT019 Fair
[21] = testing cohort, hENT1370_OCT019 Fair vs Poor
[22] = testing cohort, hENT1370_OCT019 Good
[23] = testing cohort, hENT1370_OCT019 Good and Excellent combined
[24] = testing cohort, hENT1370_OCT019 Good and Excellent combined vs Poor
[25] = testing cohort, hENT1370_OCT019 Poor
[26] = testing/validation cohort, grade 3≤ neutropenia
[27] = testing/validation cohort, grade 3≤ neutropenia vs less than grade 3
[28] = testing/validation cohort, neutropenia less than grade 3
[29] = validation cohort, ATM rs609429 Any G
[30] = validation cohort, multivariable
[31] = validation cohort, ATM rs609429 C/C

## Trifluridine/tipiracil [TAS-102]
[1]
  Disease Control Rate SD: 9 (20%)
  Overall Survival Median, months (95% CI): 3.9 (3.3, 5.5) months
  Progression-free Survival Median, months (95% CI): 1.9 (1.7, 2.0) months
[2]
  Disease Control Rate PD: 42 (66%)
  Disease Control Rate SD: 22 (34%)
  Progression-free Survival Median, months (95% CI): 2.1 (1.9, 2.5) months
[3]
  Overall Survival HR (95% CI) multivariate: 0.50 (0.28, 0.89)
  Overall Survival HR (95% CI) univariate: 0.48 (0.27, 0.85)
  Progression-free Survival HR (95% CI) multivariate: 0.58 (0.37, 0.89)
  Progression-free Survival HR (95% CI) univariate: 0.59 (0.38, 0.90)
[4]
  Disease Control Rate PD: 55 (66%)
  Disease Control Rate SD: 28 (34%)
  Overall Survival Median, months (95% CI): 9.0 (5.1, 9.0+) months
  Progression-free Survival Median, months (95% CI): 2.1 (1.9, 2.4) months
[5]
  Overall Survival HR (95% CI) multivariate: 0.54 (0.31, 0.93)
  Overall Survival HR (95% CI) univariate: 0.50 (0.29, 0.86)
  Progression-free Survival HR (95% CI) multivariate: 0.65 (0.43, 0.98)
  Progression-free Survival HR (95% CI) univariate: 0.64 (0.43, 0.95)
[6]
  Disease Control Rate PD: 13 (68%)
  Disease Control Rate SD: 6 (32%)
  Overall Survival Median, months (95% CI): 9.0 (2.9, 9.0+) months
  Progression-free Survival Median, months (95% CI): 2.0 (1.6, 2.5) months
[7]
  Overall Survival HR (95% CI) multivariate: 0.78 (0.31, 1.99)
  Overall Survival HR (95% CI) univariate: 0.58 (0.24, 1.41)
  Progression-free Survival HR (95% CI) multivariate: 1.00 (0.55, 1.80)
  Progression-free Survival HR (95% CI) univariate: 0.86 (0.48, 1.55)
[8]
  HR for OS: 0.54
  HR for PFS: 0.65
[9]
  OS: 3.9 months
  PFS: 1.9 months
[10]
  OS: 9.0 months
  PFS: 2.1 months
[11]
  HR for OS: 0.50
  HR for PFS: 0.64
[12]
  Disease Control Rate PD: 50 (71%)
  Disease Control Rate SD: 20 (29%)
  Overall Survival Median, months (95% CI): 5.2 (3.7, 9.0+) months
  Progression-free Survival Median, months (95% CI): 2.0 (1.9, 2.4) months
[13]
  Overall Survival HR (95% CI) multivariate: 1.19 (0.69, 2.07)
  Overall Survival HR (95% CI) univariate: 1.31 (0.76, 2.27)
  Progression-free Survival HR (95% CI) multivariate: 0.81 (0.54, 1.19)
  Progression-free Survival HR (95% CI) univariate: 0.92 (0.62, 1.35)
[14]
  Disease Control Rate PD: 41 (71%)
  Disease Control Rate SD: 17 (29%)
  Overall Survival Median, months (95% CI): 5.8 (4.7, 8.8+) months
  Progression-free Survival Median, months (95% CI): 2.0 (1.9, 2.1) months
[15]
  Disease Control Rate PD: 41 (71%)
  Disease Control Rate SD: 17 (29%)
  Overall Survival Median, months (95% CI): 4.4 (3.6, 9.0+) months
  Progression-free Survival Median, months (95% CI): 2.0 (1.8, 2.3) months
[16]
  Overall Survival HR (95% CI) multivariate: 1.23 (0.69, 2.18)
  Overall Survival HR (95% CI) univariate: 1.38 (0.78, 2.43)
  Progression-free Survival HR (95% CI) multivariate: 0.81 (0.54, 1.22)
  Progression-free Survival HR (95% CI) univariate: 0.92 (0.61, 1.38)
[17]
  Disease Control Rate PD: 9 (75%)
  Disease Control Rate SD: 3 (25%)
  Progression-free Survival Median, months (95% CI): 2.5 (0.4, 3.9) months
[18]
  Overall Survival HR (95% CI) multivariate: 1.02 (0.38, 2.71)
  Overall Survival HR (95% CI) univariate: 1.06 (0.40, 2.79)
  Progression-free Survival HR (95% CI) multivariate: 0.79 (0.39, 1.58)
  Progression-free Survival HR (95% CI) univariate: 0.90 (0.45, 1.78)
[19]
  Disease Control Rate PD: 38 (64%)
  Disease Control Rate SD: 21 (36%)
[20]
  Disease Control Rate PD: 25 (81%)
  Disease Control Rate SD: 6 (19%)
  Overall Survival Median, months (95% CI): 4.0 (3.1, 8.8) months
  Progression-free Survival Median, months (95% CI): 1.9 (1.6, 2.0) months
[21]
  Overall Survival HR (95% CI) multivariate: 0.58 (0.25, 1.37)
  Overall Survival HR (95% CI) univariate: 0.77 (0.34, 1.75)
  Progression-free Survival HR (95% CI) multivariate: 1.13 (0.57, 2.24)
  Progression-free Survival HR (95% CI) univariate: 1.24 (0.64, 2.40)
[22]
  Disease Control Rate PD: 17 (71%)
  Disease Control Rate SD: 7 (29%)
[23]
  Overall Survival Median, months (95% CI): 9.0 (5.1, 9.0) months
  Progression-free Survival Median, months (95% CI): 2.1 (1.9, 2.4) months
[24]
  Overall Survival HR (95% CI) multivariate: 0.37 (0.17, 0.80)
  Overall Survival HR (95% CI) univariate: 0.42 (0.20, 0.90)
  Progression-free Survival HR (95% CI) multivariate: 0.71 (0.38, 1.30)
  Progression-free Survival HR (95% CI) univariate: 0.73 (0.40, 1.34)
[25]
  Disease Control Rate PD: 11 (79%)
  Disease Control Rate SD: 3 (21%)
  Overall Survival Median, months (95% CI): 3.6 (2.3, 8.5) months
  Progression-free Survival Median, months (95% CI): 2.0 (1.7, 2.4) months
Testing cohort, per OCT2 rs316000 genotype (row), OCT2 rs316000 A/A genotype
  Progression-free Survival Median, months (95% CI): 2.0 (1.9, 2.1) months
Testing cohort, per OCT2 rs316000 genotype (row), OCT2 rs316000 A/G genotype
  Progression-free Survival Median, months (95% CI): 1.9 (1.7, 2.4) months
Testing cohort, per OCT2 rs316000 genotype (row), OCT2 rs316000 Any G genotype
  Progression-free Survival Median, months (95% CI): 1.9 (1.8, 2.6) months
Testing cohort, per OCT2 rs316000 genotype (row), OCT2 rs316000 G/G genotype
  Progression-free Survival Median, months (95% CI): 3.7 (1.7, 6.8+) months
[26]
  OS: 8.8 months
  PFS: 2.3 months
[27]
  HR for OS: 0.21
  HR for PFS: 0.50
[28]
  OS: 3.7 months
  PFS: 1.9 months
[29]
  Disease Control CR/PR/SD, patients n (%): 26 (33%)
  Median PFS (95% CI): 2.0 (1.9, 2.3) months
  PD, patients n (%): 52 (67%)
[30]
  HR OS (95% CI): 0.80 (0.45, 1.41)
  HR PFS (95% CI): 0.85 (0.56, 1.29)
Validation cohort, univariate
  HR OS (95% CI): 0.73 (0.43, 1.25)
  HR PFS (95% CI): 0.78 (0.52, 1.16)
[31]
  Disease Control CR/PR/SD, patients n (%): 11 (22%)
  Median OS (95% CI): 4.4 (3.7, 9.0+) months
  Median PFS (95% CI): 1.9 (1.8, 2.3) months
  OS: 4.4 months
  PD, patients n (%): 39 (78%)
  PFS: 1.9 months
